# BindingDB's records for PubMed 39291025 (PI Health Sciences)
# Experiment: Inhibition of cGAS in human THP-1 cells […] incubated for 18 hrs by Lucia luciferase reporter based counter assay
row,Compound,IC50 [µM]
1,C[C@@H]1CN2CC[C@H]1n1c(nc3cc(Cl)ccc31)O[C@H]1C[C@@H](C(=O)O)N(C1)c1nc(nc3c1oc1ccccc13)CCOCCCC2=O,> 10
2,C[C@H]1CN2CC[C@H]1n1c(nc3ccccc31)O[C@H]1C[C@@H](C(=O)O)N(C1)c1nc(nc3c1oc1ccccc13)C(F)(F)COCCCCC2=O,14
3,C[C@@H]1CN2CC[C@H]1n1c(nc3ccccc31)O[C@H]1C[C@@H](C(=O)O)N(C1)c1nc(nc3c1oc1ccccc13)CCCCCOC2=O,8.2
4,C[C@H]1CN2CC[C@@H]1n1c(nc3ccccc31)O[C@H]1C[C@@H](C(=O)O)N(C1)c1nc(nc3c1oc1ccccc13)CCCCCN(C)C2=O,7.3
5,C[C@H]1CN2CC[C@@H]1n1c(nc3ccccc31)O[C@H]1C[C@@H](C(=O)O)N(C1)c1nc(nc3c1oc1cc(Cl)ccc13)C(F)(F)CCCOCC2=O,> 10

# Results, then the molecule that gave them:
row,IC50 [µM],Compound
1,> 10,CC(=O)[C@@H]1C[C@H]2CN1c1nc(nc3c1oc1ccccc13)CCOCCCC(=O)N1CC[C@@H]([C@@H](C)C1)n1c(nc3cc(Cl)ccc31)O2
2,6,Cc1cccc2c1nc1n2[C@@H]2CCN(C[C@H]2C)C(=O)CCCCCC(F)(F)c2nc(c3oc4ccccc4c3n2)N2C[C@H](C[C@H]2C(=O)O)O1
3,9.5,C[C@H]1CN2CC[C@@H]1n1c(nc3cc(Cl)ccc31)O[C@H]1C[C@@H](C(=O)O)N(C1)c1nc(nc3c1oc1cc(Cl)ccc13)CCOCCCC2=O
4,> 10,C[C@H]1CN2CC[C@@H]1n1c(nc3cc(Cl)ccc31)O[C@H]1C[C@@H](C(=O)O)N(C1)c1nc(nc3c1oc1ccccc13)C(F)(F)OCCCCC2=O
5,6.6,C[C@H]1CN2CC[C@@H]1n1c(nc3ccccc31)O[C@H]1C[C@@H](C(=O)O)N(C1)c1nc(nc3c1oc1ccccc13)C(F)(F)CCCCC(F)(F)C2=O
